Test results taken from patent US20230416684A1, “COMPOSITION FOR PREVENTING OR TREATING MUSCLE DISEASES, CONTAINING STEM CELLS IN WHICH GRO-ALPHA IS EXPRESSED OR GRO-ALPHA” (SAMSUNG LIFE PUBLIC WELFARE FOUNDATION, priority 2020, published 2023).

Assays:
C2C12 cells [1] = assay: Cell morphology and cell viability of lovastatin death-induced C2C12 cells treated with GSK′872 and GRO-α individually or in combination; format: cell-based, mouse; details: GRO-α 200 μg/mL; for cell proliferation (cell morphology) / cell viability: GSK 3 μm pretreatment 3 hours; for cell proliferation (cell morphology): cultured for 48, FIG. 5A; for cell viability: cultured for 48, FIG. 5B
Procedure: Inhibitory effects of GSK′827 and GRO-α, known as […] that block the RIP-3 pathway, on cell death of skeletal muscle myoblasts were compared. In detail, skeletal muscle myoblasts of the cell death-induced mouse by lovastatin treatment were pretreated with 3 μm of GSK′827 for 3 hours, followed by washing with 1×PBS. The medium was replaced by a serum-free medium, and GRO-α was diluted therein to a final concentration of […]/mL. Then, the cells were treated with GRO-α and GSK′827 individually or in combination, followed by culturing for 48 to observe the cell morphology.

[2] = test system: necrosis markers in C2C12 cells; assay: Western blotting of necrosis markers in lovastatin death-induced C2C12 cells treated with GSK′872 and GRO-α individually or in combination; format: cell-based, mouse; details: FIGS. 5C and 5D
[3] = test system: MDX mouse (a mouse model for duchenne muscular dystrophy); assay: Activity of creatine kinase in serum of MDX mouse injected with WJ-MSC or GRO-α; format: in vivo; details: intravenous and intraperitoneal injection, serum after one week, FIG. 6A
Procedure: (§1) Based on the results of Examples 1 to 3, the efficacy of GRO-α on prevention or treatment of muscle diseases was confirmed in an MDX mouse (a mouse model for duchenne muscular dystrophy). In detail, the MDX mouse was intravenously and intraperitoneally injected with each of WJ-MSC and GRO-α. After one week, blood was collected from the heart of the mouse, centrifuged at 15,500×g for 10 minutes to separate serum, and then, activity of creatine kinase was measured.

[4] = test system: necrosis markers in C2C12 cells; assay: Western blotting of necrosis markers in lovastatin death-induced C2C12 cells treated with GRO-α at different concentrations; format: cell-based, mouse; details: FIGS. 4C and 4D
Procedure: To confirm the inhibitory effects of the PL-MSCs and WJ-MSCs on the cell death, apoptosis markers and necrosis markers expressed in the mouse skeletal muscle myoblasts were confirmed by western blotting. In detail, after collecting the cells and breaking the cell membrane by using a buffer in which RIPA buffer and urea buffer were mixed at a ratio of 1:1, centrifugation was performed thereon, and the supernatant thus obtained was collected and subjected to the Bradford assay (Bio-rad, USA) to quantify proteins in the cells. After loading 20 μg of the proteins of from each sample on a gel, electrophoresis was performed on the gel by using SDS. After transferring the proteins to a polyvinylidene fluoride (PVDF) membrane, a 1× tris-buffered saline with 0.1% Tween 20 (TBST) solution to which 5% skimmed milk (BD Difco, USA) was added, followed by culturing at room temperature for 1 hour. Afterwards, the proteins were treated with PARP (1:1000, Cell signaling, USA), cleaved caspase-3 (1:1000, Cell signaling, USA), phospho-RIP3 (1:1000, Cell signaling, USA), and phospho-MLKL (1:1000, Cell signaling, USA) and beta actin (1:5000; Santa Cruz, USA) antibodies, followed by culturing overnight at 4° C. Next, the proteins were treated with secondary antibodies (anti-Rabbbit IgG-HRP; ABCIon, Korea) at room temperature for 1 hour, and blots were developed by using ECL (Bio-rad, USA). […]

phospho-MLKL = assay: Western blot of phospho-MLKL in muscles of MDX mouse injected with WJ-MSCs or GRO-α; format: in vivo; details: muscles of MDX mouse after injection; protein level, FIG. 6B
Procedure: as §1
(§2) The expression levels of necrosis markers in muscles of the […] injected with WJ-MSCs and GRO-α were confirmed in Example 4-1. In detail, the muscle tissue of the mouse was ground with liquid nitrogen into a minimum size in a mortar, added to an E-tube, and then subjected to sonication with lysis buffer (urea+RIPA=1:1). Afterwards, the supernatant was collected, and proteins in the tissue were quantified according to the Bradford assay (Bio-rad, USA). Then, proteins were detected by using western blot.

C2C12 cells [5] = assay: Cell morphology and cell viability of lovastatin death-induced C2C12 cells treated with GRO-α at different concentrations; format: cell-based, mouse
phospho-RIP3 = assay: Western blot of phospho-RIP3 in muscles of MDX mouse injected with WJ-MSCs or GRO-α; format: in vivo; details: muscles of MDX mouse after injection; protein level, FIG. 6C
Procedure: as §1, §2

Compound	cell proliferation (cell morphology) (C2C12 cells [1])	cell viability (C2C12 cells [1])	inhibitory effect on the expression of necrosis markers compared to GSK′872 [2]	expression of markers involved in necrosis compared to the control group ([2]; GRO-α 200 μg/mL)	activity of creatine kinase, decrease [3]	expression of necrosis markers [4]	expression of phospho-MLKL, decrease (phospho-MLKL)	cell viability, among concentration groups (C2C12 cells [5]; group treated with 100 ng/mL of GRO-α, FIG. 4B)	cell proliferation rate (C2C12 cells [5]; lovastatin death-induced C2C12 cells treated with GRO-α, FIG. 4A)	cell viability (C2C12 cells [5]; lovastatin death-induced C2C12 cells, after 24 hours of treatment with GRO-α, FIG. 4B)	expression of phospho-RIP3, decrease (phospho-RIP3)	cell viability compared to the group treated with GSK′872 (C2C12 cells [1]; FIG. 5B)
CC(C)S(=O)(=O)c1ccc2nccc(Nc3ccc4scnc4c3)c2c1 [GSK′872, reference compound]	proliferated	significant increase	–	–	–	–	–	–	–	–	–	–
growth-regulated oncogene-alpha (GRO-α)	proliferated	significant increase	excellent inhibitory effect	reduced the expression of all markers involved in necrosis	75%	inhibited the expression of the necrosis markers in a concentration-dependent manner	76%	the highest	increased	significantly increased	70%	high
